Results from paper PMC12152189, “Structure of a stripped-down and tuned-up far-red phycobilisome” (Communications Biology, 2025).

Experiments:
Assay in all cases: cryo-EM structure, […] Å
Format in all cases: binding
[1] = target: T1, ApcF2 (in FR-APC) (Chroococcidiopsis thermalis, UniProt K9TY40); conditions: non-covalent (no Cys linkage); ZZZ,ssa; Arg77 and Arg84 contact propionates; pH 6.5
T1 construct: gene Chro_1766; native purification from far-red-grown cells; intact bicylindrical FR-APC; heterodimer with ApcE2; with Far-red phycobilisome core-membrane linker protein ApcE2 (phycobiliprotein ApcE)
T1 sequence (K9TY40 1-169): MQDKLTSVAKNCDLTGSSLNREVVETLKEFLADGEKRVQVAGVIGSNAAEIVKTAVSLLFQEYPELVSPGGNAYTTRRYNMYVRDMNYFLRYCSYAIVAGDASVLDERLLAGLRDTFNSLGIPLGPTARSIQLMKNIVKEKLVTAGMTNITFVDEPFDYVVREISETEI
T1 sequence (K9TUP3 1-780 partner): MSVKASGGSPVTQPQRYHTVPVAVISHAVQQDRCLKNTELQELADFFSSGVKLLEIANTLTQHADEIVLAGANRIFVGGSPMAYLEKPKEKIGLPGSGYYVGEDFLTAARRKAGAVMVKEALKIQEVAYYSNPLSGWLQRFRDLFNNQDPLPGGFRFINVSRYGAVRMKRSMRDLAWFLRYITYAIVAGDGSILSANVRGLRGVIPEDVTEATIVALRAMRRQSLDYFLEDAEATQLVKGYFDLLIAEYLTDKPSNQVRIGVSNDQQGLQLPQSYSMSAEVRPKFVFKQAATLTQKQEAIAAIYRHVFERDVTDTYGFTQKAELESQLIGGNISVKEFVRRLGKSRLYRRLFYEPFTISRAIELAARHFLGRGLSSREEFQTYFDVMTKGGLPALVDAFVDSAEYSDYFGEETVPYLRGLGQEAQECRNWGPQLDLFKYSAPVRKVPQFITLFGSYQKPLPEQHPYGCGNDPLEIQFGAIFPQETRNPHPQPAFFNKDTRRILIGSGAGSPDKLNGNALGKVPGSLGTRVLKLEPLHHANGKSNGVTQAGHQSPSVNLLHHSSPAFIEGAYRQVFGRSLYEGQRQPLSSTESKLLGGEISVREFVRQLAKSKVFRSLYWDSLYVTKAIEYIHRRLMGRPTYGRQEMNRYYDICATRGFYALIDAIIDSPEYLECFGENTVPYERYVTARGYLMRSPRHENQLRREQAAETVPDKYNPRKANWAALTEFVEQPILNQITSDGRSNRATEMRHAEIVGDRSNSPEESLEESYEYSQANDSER

[2] = target: T2, ApcE2 (in FR-APC) (Chroococcidiopsis thermalis, UniProt K9TUP3); conditions: non-covalent (no Cys linkage); ZZZ,ssa; ApcF2 Thr76 H-bonds ring D; pH 6.5
T2 construct: gene Chro_1035; native purification from far-red-grown cells; intact bicylindrical FR-APC; ApcE2 in second (alpha-beta)3 trimer
T2 sequence (K9TUP3 1-780): T1 sequence (K9TUP3 1-780 partner)
T2 sequence (K9TY40 1-169 partner): T1 sequence (K9TY40 1-169)

[3] = target: T3, ApcB2 (in FR-APC) (Chroococcidiopsis thermalis, UniProt K9TVG8); conditions: covalent; several sites, proximal (with ApcC) and distal (without ApcC); pH 6.5
T3 construct: gene Chro_1033; native purification from far-red-grown cells; intact bicylindrical FR-APC; ApcC contacts the proximal ApcB2 bilin only; with Far-red allophycocyanin alpha subunit ApcD5
T3 sequence (K9TVG8 1-161): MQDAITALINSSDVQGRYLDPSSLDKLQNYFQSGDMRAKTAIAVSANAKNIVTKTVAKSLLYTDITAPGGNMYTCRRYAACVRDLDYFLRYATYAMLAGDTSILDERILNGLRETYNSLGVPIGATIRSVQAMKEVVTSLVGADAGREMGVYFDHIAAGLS
T3 sequence (K9U510 1-67 partner): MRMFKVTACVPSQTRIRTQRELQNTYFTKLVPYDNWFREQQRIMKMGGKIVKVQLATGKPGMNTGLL

Structure (SMILES): C/C=C1/C(=C/c2[nH]c(/C=C3N=C(/C=C4\NC(=O)C(CC)=C4C)C(C)=C\3CCC(=O)O)c(CCC(=O)O)c2C)NC(=O)[C@@H]1C [phycocyanobilin]
- cryo-EM structure, 2.51 Å [1]: in ApcF2 the pigment is in ZZZ,ssa conformation
- cryo-EM structure, 2.51 Å [2]: the bilin pigments in ApcE2 and ApcF2 are non-covalently bound
- cryo-EM structure, 2.51 Å [3]: ApcB2 is represented in green while phycocyanobilin is represented in blue
